Data set [1] has as its system Solanum lycopersicum. Kind of data set: Induction of systemic acquired resistance activity in Solanum lycopersicum (tomato) leaves assessed as decrease in hydroxyl radical generation at 0.3 mM applied as spray 24 hr prior to inoculation measured after 2 to 48 hr by TBARS assay relative to untreated control. It counts as functional, organism-based.
For data set [2], the system named is Solanum lycopersicum. Kind of data set: Induction of systemic acquired resistance activity in Botrytis cinerea infected Solanum lycopersicum (tomato) leaves assessed as increase in guaiacol peroxidase activity at 0.3 mM applied as spray 24 hr prior to inoculation measured after 6 to 48 hr by colorimetric assay relative to untreated infected control. The format is functional, organism-based.

Data set [3] deals with Solanum lycopersicum. Kind of data set: Phytotoxicity in Solanum lycopersicum (tomato) at 0.3 mM applied as spray. It counts as organism-based. To be noted: in vivo, other, 300 µM.
Data set [4] relates to Solanum lycopersicum. Kind of data set: Induction of systemic acquired resistance activity in Botrytis cinerea infected Solanum lycopersicum (tomato) leaves assessed as increase in guaiacol peroxidase activity at 0.3 mM applied as spray 24 hr prior to inoculation measured after 6 to 48 hr by colorimetric assay relative to untreated control. It counts as functional, organism-based.

For data set [5], the system named is Solanum lycopersicum. In words: Induction of systemic acquired resistance activity in Botrytis cinerea infected Solanum lycopersicum (tomato) leaves assessed as increase in H2O2 level at 0.3 mM applied as spray 24 hr prior to inoculation measured after 2 to 6 hr relative to untreated control. The format is functional, organism-based.
Data set [6] deals with Solanum lycopersicum. In words: Induction of systemic acquired resistance activity in Botrytis cinerea infected Solanum lycopersicum (tomato) leaves assessed as visible lesions on leaf surface at 0.3 mM applied as spray 24 hr prior to inoculation measured after 14 days (reference value: 66%). The format is functional.
The subject of data set [7] is Solanum lycopersicum. Kind of data set: Induction of systemic acquired resistance activity in Botrytis cinerea infected Solanum lycopersicum (tomato) leaves assessed as increase in H2O2 level at 0.3 mM applied as spray 24 hr prior to inoculation measured after 2 to 6 hr relative to untreated infected control. It counts as functional, organism-based.
Data set [8] concerns Solanum lycopersicum. In words: Induction of systemic acquired resistance activity in Botrytis cinerea infected Solanum lycopersicum (tomato) leaves assessed as induction of superoxide anion radical generation at 0.3 mM applied as spray 24 hr prior to inoculation measured after 2 to 6 hr by nitro blue tetrazolium reduction assay relative to control. The format is functional, organism-based.

The structures appear in SMILES notation. The source made the active and inactive calls. The calls are words filed in the database; no cut-off is given here.

In the case of `CSC(=O)c1cccc2nnsc12` [ACIBENZOLAR-S-METHYL], the result with Solanum lycopersicum [1], with Solanum lycopersicum [2], with Solanum lycopersicum [4], in the data set with Solanum lycopersicum [5], in the data set with Solanum lycopersicum [7] and with Solanum lycopersicum [8] was Active. In addition, the Activity result is recorded as “Non-toxic” in the data set with Solanum lycopersicum [3] and 27% in the data set with Solanum lycopersicum [6].

The values are drawn from ChEMBL document CHEMBL3044694, “Induction of disease resistance by acibenzolar-S-methyl and o-hydroxyethylorutin against Botrytis cinerea in tomato plants” (Crop Prot, 2006).
